In one data set the test system is MCF-7 cells. The data set can be described thus: Confocal microscopy binding, MCF-7 cells. The class given is cell-based. The note with it: 0.5 μM, 30 min.
For data set [1] the following is noted: cited from earlier work.
In the next data set the test system is p-HER2. The data set can be described thus: Western blot of total and phosphorylated HER2, BT-474. Format: cell-based. The note with it: BT-474 cells, 1.5 μM, 36 h. On the technique in general: Immunoblotting shows a protein as a band on a membrane.
The conditions of data set [2]: human serum, HPLC AUC vs time.
The conditions of data set [3]: mouse, in vivo.

For `N=C(N)NCCC[C@@H]1NC(=O)[C@H]2CCCN2C(=O)[C@@H]2CCCN2C(=O)[C@H](CCCCNC(=O)c2ccc3c(c2)C2(OC3=O)c3ccc(O)cc3Oc3cc(O)ccc32)NC(=O)C[C@H](c2cccc3ccccc23)NC(=O)[C@H](Cc2ccccc2)NC(=O)[C@H](CC(=O)O)NC(=O)[C@H](CC(=O)O)NC(=O)[C@H](Cc2ccccc2)NC(=O)C[C@H](c2cccc3ccccc23)NC1=O` [compound 44, Cyclo(PpR-(R)Anapa-FDDF-(R)Anapa-K-(6-FAM)], the “Binding to cells by confocal microscopy (green fluorescence)” value in the data set on MCF-7 cells was “does not bind significantly”.

In the case of “Cyclo(PpR-((R) Anapa)FDDF-((R) Anapa)R [compound 18]”, in data set [1], the “Stability in serum in vitro” value is on record as “more than 48 h”.

On to `N=C(N)NCCC[C@H]1NC(=O)C[C@H](c2cccc3ccccc23)NC(=O)[C@@H](Cc2ccccc2)NC(=O)[C@@H](CC(=O)O)NC(=O)[C@H]2CCCN2C(=O)[C@@H]2CCCN2C(=O)[C@@H](CCCNC(=N)N)NC(=O)C[C@H](c2cccc3ccccc23)NC(=O)[C@@H](Cc2ccccc2)NC(=O)[C@@H](CC(=O)O)NC1=O` [compound 32, Cyclo(Ppdf-(R)Anapa-rdf-(R)Anapa-r], for which, in the data set on p-HER2, the “Level of p-HER2 (Western blot)” value is reported as “decreased the level of p-HER2” and the “Total-HER2 protein levels (Western blot)” value is given as “did not show any significant effect”. The “Time stable in serum” value in data set [2] was determined as 48 h. Further, in data set [3], the “Compound detected after 12 h compared to the 15 min” value is on record as around 70%.

Values taken from article PMC6284401 (Journal of peptide science : an official publication of the …, 2018).
